From patent publication US20130190314A1, “DERIVATIVES OF 6-CYCLOAMINO-2-THIENYL-3-(PYRIDIN-4-YL)IMIDAZO[1,2-b]-PYRIDAZINE AND 6-CYCLOAMINO-2-FURANYL-3-(PYRIDIN-4-YL)IMIDAZO[1,2-b]-PYRIDAZINE, PREPARATION AND THERAPEUTIC USE THEREOF” (priority 2008, published 2013)

How the values were obtained:
[1] = biological target: T1, casein kinase 1 epsilon (CK1 epsilon) (Homo sapiens, UniProt P49674); assay: Filter-plate assay of ATP-33P: inhibition of phosphorylation of casein by CK1 epsilon; assay type: biochemical; details: casein substrate, 10 μM ATP, 2 hours at ambient temperature
T1 construct: Invitrogen Corporation (alternative)
Procedure: The capacity of the compounds of the invention to inhibit the phosphorylation of casein by casein kinase 1 epsilon and delta can be evaluated according to the procedure described in document US 2005/0131012.
Filter-Plate Assay of ATP-^33P for the Screening of CK1 Epsilon Inhibitors:
The effect of the compounds on inhibition of the phosphorylation of casein by the enzyme casein kinase 1 epsilon (CK1 epsilon) is measured using a casein assay with filtration of ATP-^33P in vitro.
Casein kinase 1 epsilon (0.58 mg/ml) is obtained via fermentation and purification processes carried out according to methods well known to those skilled in the art, or may also be obtained from Invitrogen Corporation™ (human CK1 epsilon).
The compounds are tested at five different concentrations so as to generate IC50 values, i.e. the concentration at which a compound is capable of inhibiting the enzymatic activity by 50%, or alternatively the % inhibition at a concentration of 10 micromolar.
“U”-bottomed Falcon plates are prepared by placing 5 μl of solutions of the compounds according to the invention at concentrations of 10, 1, 0.1, 0.01 or 0.001 μM in various wells. The solutions of the compounds according to the invention at these various concentrations are prepared by diluting in a test buffer (50 mM Tris, pH 7.5, […], 2 mM DTT and 1 mM EGTA) a stock solution in DMSO at a concentration of 10 mM. Next, 5 μl of dephosphorylated casein are added to a final concentration of 0.2 μg/μl, 20 μl of CK1 epsilon are added to a final concentration of 3 ng/μl, and 20 μl of ATP-^33P are added to a final concentration of 0.02 μCi/μl mixed with cold ATP (10 μM final—approximately 2×10^6 CPM per well). The final total test volume per well is equal to 50 μl.
The “U”-bottomed Falcon® test plate mentioned above is vortexed, and then incubated at ambient temperature for 2 hours. After 2 hours, the reaction is stopped by adding an ice-cold solution of 65 μl of cold ATP (2 mM) prepared in test buffer. 100 μl of the reaction mixture are then transferred from the “U”-bottomed Falcon®plate into Millipore MAPH filter plates, preimpregnated with 25 μl of ice-cold 100% TCA. […]
The plates are left to dry overnight at ambient temperature. […] The radiation emitted by each well is then measured for 2 minutes in a Packard® Topcount NXT scintillation counter, in which the values of CPM/well are measured.
The % inhibition of the capacity of the enzyme to phosphorylate the substrate (casein) is determined for each concentration of compound tested. These inhibition data expressed as percentages are used to calculate the IC50 value for each compound compared with the controls.
The kinetic studies determined the KM value for ATP as being 21 μM in this test system.

[2] = test system: Mper1-luc Rat-1 (P2C4) fibroblasts; assay: Circadian cell assay: mPer1-promoter luciferase reporter, period prolongation; assay type: cell-based; details: effective concentration that induced a 1-hour prolongation of the circadian period
Procedure: Mper1-luc Rat-1 (P2C4) fibroblast cultures were prepared by dividing the cultures every 3-4 days (approximately 10-20% of confluence) on 150 cm^2 degassed polystyrene tissue culture flasks (Falcon® #35-5001) and maintained in growth medium [EMEM (Cellgro #10-010-CV); 10% foetal bovine serum (FBS; Gibco #16000-044); and 50 I.U./ml of penicillin-streptomycin (Cellgro #30-001-CI)] at 37° C. and under 5% CO2.
Cells obtained from Rat-1 fibroblast cultures at 30-50% of confluence as described above were co-transfected with vectors containing the selectable marker for zeocin resistance for a stable transfection and a luciferase reporter gene controlled by the mPer-1 promoter. After 24 to 48 hours, the cultures were divided on 96-well plates and maintained in growth medium supplemented with 50-100 μg/ml of zeocin (Invitrogen® #45-0430) for 10-14 days. The zeocin-resistant stable transfectants were evaluated for the expression of the reporter gene by adding 100 μM luciferin (Promega® #E1603®) to the growth medium and by assaying the luciferase activity on a TopCount® scintillation counter (Packard Model #C384V00). The Rat-1 cell clones expressing both zeocin resistance and luciferase activity controlled by mPer1 were serum-shock synchronized with 50% horse serum [HS (Gibco® #16050-122)] and the activity of the circadian reporter was evaluated. The P2C4 clone of Mper1-luc Rat-1 fibroblasts was selected to test the compound.
Mper1-luc Rat-1 (P2C4) fibroblasts at 40-50% of confluence, obtained according to the protocol described above, were plated out onto 96-well opaque tissue culture plates (Perkin Elmer® #6005680). The cultures are maintained in growth medium supplemented with 100 μg/mL of zeocin (Invitrogen #45-0430) until they have reached 100% of confluence (48-72 h). The cultures were then synchronized with 100 μl of synchronization medium [EMEM (Cellgro #10-010-CV); 100 I.U./ml of penicillin-streptomycin (Cellgro #30-001-C1); HS at 50% (Gibco #16050-122)] for 2 hours at 37° C. and under 5% CO2. After synchronization, the cultures were rinsed with 100 μl of EMEM (Cellgro #10-010-CV) for 10 minutes at ambient temperature. After rinsing, the medium was replaced with 300 μl of CO2 independent medium [CO2I (Gibco #18045-088); 2 mM L-glutamine (Cellgro #25-005-C1); 100 I.U./ml of penicillin-streptomycin (Cellgro #30-001-C1); 100 μM luciferin (Promega #E 1603)]. […]
The period analysis was performed either by determining the interval between the relative light emission minima over several days or by Fourier transform. […] The data were analysed by adjusting a hyperbolic curve to the data expressed as change of period (Y-axis) as a function of the concentration of the test compound (X-axis) in the XLfit™ software, and the CE Delta (t+1 h) was interpolated from this curve.

T1 sequence (P49674 whole entry): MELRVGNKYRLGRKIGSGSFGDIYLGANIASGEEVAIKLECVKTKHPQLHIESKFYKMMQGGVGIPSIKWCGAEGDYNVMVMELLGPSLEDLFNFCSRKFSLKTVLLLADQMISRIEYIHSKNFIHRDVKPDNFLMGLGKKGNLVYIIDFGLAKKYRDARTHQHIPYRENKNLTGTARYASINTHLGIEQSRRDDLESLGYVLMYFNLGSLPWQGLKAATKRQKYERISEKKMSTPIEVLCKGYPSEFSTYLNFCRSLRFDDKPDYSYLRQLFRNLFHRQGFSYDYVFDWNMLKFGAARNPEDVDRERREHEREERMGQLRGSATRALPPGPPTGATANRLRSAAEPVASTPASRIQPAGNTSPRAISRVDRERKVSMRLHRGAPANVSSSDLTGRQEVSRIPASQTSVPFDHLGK

Compound	melting point	IC50 [1]	CE Delta (t + 1 h) [2]
c1csc(-c2nc3ccc(N4CCNCC4)nn3c2-c2ccncc2)c1 [Compound 1, 6-(piperazin-1-yl)-3-(pyridin-4-yl)-2-(thien-2-yl)imidazo[1,2-b]pyridazine]	217 to 220 °C		
c1csc(-c2nc3ccc(N4C[C@H]5CNC[C@H]5C4)nn3c2-c2ccncc2)c1 [Compound 6, 6-[(cis)-hexahydropyrrolo[3,4-c]pyrrol-2(1H)-yl]-3-(pyridin-4-yl)-2-(thien-2-yl)imidazo[1,2-b]pyridazine]	179 to 183 °C		
c1csc(-c2nc3ccc(N4CC5CCCNC5C4)nn3c2-c2ccncc2)c1 (stereo not drawn) [Compound 7, 6-(Octahydro-6H-pyrrolo[3,4-b]pyridin-6-yl)-3-(pyridin-4-yl)-2-(thien-2-yl)imidazo[1,2-b]pyridazine]	176 to 179 °C		
CN1C[C@@H]2CN(c3ccc4nc(-c5ccc(Cl)s5)c(-c5ccncc5)n4n3)C[C@@H]2C1 [Compound 15, 2-(5-chlorothien-2-yl)-6-[(cis)-5-methylhexahydropyrrolo[3,4-c]pyrrol-2(1H)-yl]-3-(pyridin-4-yl)imidazo[1,2-b]pyridazine]	217 to 220 °C		
CC(C)(O)CN1CCN(c2ccc3nc(-c4ccsc4)c(-c4ccncc4)n3n2)CC1 [Compound 19, 2-methyl-1-[4-(3-(pyridin-4-yl)-2-(thien-3-yl)imidazo[1,2-b]pyridazin-6-yl)piperazin-1-yl]propan-2-ol]	178 to 180 °C		
CN1CCN(c2ccc3nc(-c4ccsc4)c(-c4ccncc4)n3n2)CC1 [Compound 18, 6-(4-methylpiperazin-1-yl)-3-(pyridin-4-yl)-2-(thien-3-yl)imidazo[1,2-b]pyridazine]	177 to 179 °C	25 nM	74 to 83 nM
C[C@@H]1CN(c2ccc3nc(-c4ccc(Cl)s4)c(-c4ccncc4)n3n2)C[C@H](C)N1 [Compound 13, 2-(5-chlorothien-2-yl)-6-[(cis)-3,5-dimethylpiperazin-1-yl]-3-(pyridin-4-yl)imidazo[1,2-b]pyridazine]	220 to 222 °C		
c1csc(-c2nc3ccc(N4CCC5(CCCNC5)CC4)nn3c2-c2ccncc2)c1 [Compound 8, 9-(3-(pyridin-4-yl)-2-(thien-2-yl)imidazo[1,2-b]pyridazin-6-yl)-2,9-diazaspiro[5.5]undecane]	184 to 189 °C		

Further lines, with some results ahead:

melting point	IC50 [1]	Compound	CE Delta (t + 1 h) [2]
168 to 170 °C		c1cc(-c2c(-c3ccsc3)nc3ccc(N4CCC(N5CCCC5)CC4)nn23)ccn1 [Compound 23, 3-(pyridin-4-yl)-6-(4-pyrrolidin-1-ylpiperidin-1-yl)-2-(thien-3-yl)imidazo[1,2-b]pyridazine]	
190 to 192 °C		Cc1ccc(-c2nc3ccc(N4CCN(CCO)CC4)nn3c2-c2ccncc2)o1 [Compound 28, 2-{4-[2-(5-methylfuran-2-yl)-3-pyridin-4-ylimidazo[1,2-b]pyridazin-6-yl]piperazin-1-yl}ethanol]	
147 to 149 °C		Cc1ccc(-c2nc3ccc(N4CCN(CC(C)(C)O)CC4)nn3c2-c2ccncc2)o1 [Compound 29, 2-methyl-1-{4-[2-(5-methylfuran-2-yl)-3-pyridin-4-ylimidazo[1,2-b]pyridazin-6-yl]piperazin-1-yl}propan-2-ol]	
178 to 181 °C		Cc1ccc(-c2nc3ccc(N4C[C@H]5CN(C)C[C@H]5C4)nn3c2-c2ccncc2)o1 [Compound 33, 2-(5-Methylfuran-2-yl)-6-[(cis)-5-methylhexahydropyrrolo[3,4-c]pyrrol-2(1H)-yl]-3-(pyridin-4-yl)imidazo[1,2-b]pyridazine]	
	15 nM	CN1C[C@@H]2CN(c3ccc4nc(-c5ccoc5)c(-c5ccncc5)n4n3)C[C@@H]2C1 [Compound 34]	17 nM
139 to 149 °C		CC(C)(O)CN1CCN(c2ccc3nc(-c4ccoc4)c(-c4ccncc4)n3n2)CC1 [Compound 31, 1-[4-(2-furan-3-yl-3-pyridin-4-ylimidazo[1,2-b]pyridazin-6-yl)piperazin-1-yl]-2-methylpropan-2-ol]	
133 to 168 °C		c1cc(-c2c(-c3ccsc3)nc3ccc(N4CCC5(CCCNC5)CC4)nn23)ccn1 [Compound 22, 9-[3-(pyridin-4-yl)-2-(thien-3-yl)imidazo[1,2-b]pyridazin-6-yl]-2,9-diazaspiro[5.5]undecane]	
